In article PMC7221574 (Molecules, 2020):
Where two headings read alike, the source gives them in different places.

What was measured:
[1] = tested on: LoVo/DX; assay: cells; type: cell-based, human; conditions: for IC50: 72 h, read-out: IC50 LoVo/DX; for RI (resistance index): RI = (IC50 for LoVo/DX)/(IC50 for LoVo)
Experimental: (§1) The A549 cell line was purchased from the European Collection of Authenticated Cell Cultures (ECACC, Salisbury, UK). The MCF-7, LoVo and LoVo/DX cell lines was purchased from American Type Culture Collection (ATCC, Manassas, VA, USA). All the cell lines are maintained in the Institute of Immunology and Experimental Therapy (IIET), Wroclaw, Poland.
(§2) Human lung adenocarcinoma cell line was cultured in a mixture of OptiMEM and RPMI 1640 (1:1) medium (IIET, Wroclaw, Poland), supplemented with 5% fetal bovine serum HyClone (GE Healthcare, USA) and 2 mM L-glutamine (Sigma-Aldrich, Germany). Human breast adenocarcinoma cell line was cultured in a mixture of Eagle medium (IIET, Wroclaw, Poland), supplemented with 10% fetal bovine serum, 2 mM L-glutamine, 8 μg/mL insulin and 1% amino acids (Sigma-Aldrich, Germany). Human colon adenocarcinoma cell lines were cultured in a mixture of OptiMEM and RPMI 1640 (1:1) medium (IIET, Wroclaw, Poland), supplemented with 5% fetal bovine serum HyClone (GE Healthcare, USA), 2 mM L-glutamine, 1 mM sodium pyruvate (Sigma-Aldrich, Germany) and 10 μg/100 mL doxorubicin (Accord) for LoVo/DX. Murine embryonic fibroblast cells were cultured in Dulbecco medium (Gibco), supplemented with 10% fetal bovine serum (GE Healthcare, USA) and 2 mM L-glutamine (Sigma-Aldrich, Germany). All culture media contained antibiotics: 100 U/mL penicillin (Polfa-Tarchomin, Poland) and 0.1 mg/mL streptomycin (Sigma Aldrich, Germany). All cell lines were cultured during entire experiment in humid atmosphere at 37 °C and 5% CO2.
(§3) All cell lines were exposed to each tested agent at different concentrations in the range 100–0.001 μg/mL for 72 h. The cells were also exposed to the reference drug cisplatin (Teva Pharmaceuticals, Poland) and doxorubicin (Accord Healthcare Limited, UK). Additionally, all cell lines were exposed to DMSO (solvent used for tested compounds) (POCh, Poland) at concentrations corresponding to those present in dilutions of tested agents. After 72 h sulforhodamine B assay (SRB) was performed.
(§4) After 72 h of incubation with the tested compounds, the cells were fixed in situ by gently adding of 50 μL per well of cold 50% trichloroacetic acid TCA (POCh, Poland) and were incubated at room temperature for one hour. Then the wells were washed four times with water and air dried. Next, 50 μL of 0.1% solution of sulforhodamine B (Sigma-Aldrich, Germany) in 1% acetic acid (POCh, Poland) were added to each well and were incubated at room temperature for 0.5 h. After incubation time, unbound dye was removed by washing plates four times with 1% acetic acid, whereas the stain bound to cells was solubilized with 150 μL of 10 mM Tris base (Sigma-Aldrich, Germany). Absorbance of each solution was read from a Synergy H4 Hybrid Multi-Mode Microplate Reader (BioTek Instruments, USA) at the 540 nm wavelength.

[2] = tested on: LoVo; assay: In vitro antiproliferative activity, SRB assay, LoVo; type: cell-based, human; conditions: for IC50: 72 h, human colon adenocarcinoma, SRB, mean ± SD; for selectivity index (SI) LoVo: SI = (IC50 BALB/3T3)/(IC50 LoVo)
Experimental: as §1, §2, §3, §4

[3] = tested on: A549; assay: In vitro antiproliferative activity, SRB assay, A549; type: cell-based, human; conditions: for IC50: human lung adenocarcinoma, 72 h, SRB, mean ± SD
Experimental: as §1, §2, §3, §4

[4] = tested on: BALB/3T3; assay: In vitro antiproliferative activity, SRB assay, normal fibroblasts BALB/3T3; type: cell-based, murine; conditions: normal murine embryonic fibroblasts, 72 h, SRB, mean ± SD
Experimental: as §1, §2, §3, §4

[5] = tested on: MCF-7; assay: In vitro antiproliferative activity, SRB assay, MCF-7; type: cell-based, human; conditions: for IC50: human breast adenocarcinoma, 72 h, SRB, mean ± SD; for selectivity index (SI) MCF-7: SI = (IC50 BALB/3T3)/(IC50 MCF-7)
Experimental: as §1, §2, §3, §4

SMILES | IC50 ([1]; Homo sapiens, LoVo/DX, doxorubicin-resistant colon adenocarcinoma subline, SRB, mean ± SD) | RI (resistance index) [1] | IC50 ([2]; Homo sapiens, LoVo) | IC50 ([3]; Homo sapiens, A549, 72 h) | IC50 ([4]; Mus musculus, BALB/3T3) | IC50 ([5]; Homo sapiens, MCF7, 72 h) | IC50 ([1]; Homo sapiens, LoVo/DX) | IC50 [2] | IC50 [3] | IC50 [5] | selectivity index (SI) LoVo [2] | selectivity index (SI) A549 ([3]; SI = (IC50 BALB/3T3)/(IC50 A549)) | selectivity index (SI) MCF-7 [5] | IC50 ([1]; doxorubicin-resistant colon adenocarcinoma subline, SRB, mean ± SD) | IC50 [4] | times more potent than unmodified colchicine 1 ([1]; LoVo/DX line)
COc1cccc2c1C(=O)c1c(O)c3c(c(O)c1C2=O)C[C@@](O)(C(=O)CO)C[C@@H]3O[C@H]1C[C@H](N)[C@H](O)[C@H](C)O1 [Doxorubicin, reference compound] | 8730 ± 2540 nM | 87.9 | 99.4 ± 41 nM | 142 ± 46 nM | 149 ± 127 nM | 204 ± 47.8 nM | – | – | – | – | – | – | – | – | – | –
CNc1ccc2c(cc1=O)C(NS(=O)(=O)N(C)C)CCc1cc(OC)c(OC)c(OC)c1-2 (centres unmarked) [Compound 18] | – | 57.8 | 9.3 to 15.5 nM | 9.3 to 15.5 nM | 14.2 ± 13.2 nM | 9.3 to 15.5 nM | 540 ± 107 nM | 9.3 ± 1.1 nM | 10.6 ± 0.6 nM | 15.5 ± 1.7 nM | – | – | – | – | – | –
CCCCCCCCCCCCCCCC(=O)N[C@H]1CCc2cc(OC)c(OC)c(OC)c2-c2ccc(NC)c(=O)cc21 [Compound 7] | – | 39.0 | 62.4 ± 16.9 nM | 614 ± 194 nM | 546 ± 104 nM | 465 ± 187 nM | 2440 ± 923 nM | – | – | – | over 6 | – | – | – | – | –
CNc1ccc2c(cc1=O)C(NC(=O)C(C)C)CCc1cc(OC)c(OC)c(OC)c1-2 (centres unmarked) [Compound 8] | – | 24.3 | 7 ± 1.4 nM | 11.7 ± 1.4 nM | 28.1 ± 10.8 nM | 18.8 ± 9.9 nM | 171 ± 41.3 nM | – | – | – | 1.5–4.0 | 1.5–4.0 | 1.5–4.0 | – | – | –
N.N.[Cl][Pt][Cl] [Cisplatin, reference compound] | – | 1.2 | – | – | – | – | – | 7080 ± 1600 nM | 5740 ± 968 nM | 7140 ± 1220 nM | – | – | – | 8340 ± 1120 nM | 5665 ± 31.8 nM | –
CNc1ccc2c(cc1=O)[C@@H](NC(=O)c1cccnc1)CCc1cc(OC)c(OC)c(OC)c1-2 [Compound 15] | – | 76.8 | 10.8 ± 1.3 nM | 36.8 ± 12.1 nM | 43.3 ± 29.7 nM | 13 ± 2.2 nM | 832 ± 293 nM | – | – | – | – | – | – | – | – | –
CCC(=O)NC1CCc2cc(OC)c(OC)c(OC)c2-c2ccc(NC)c(=O)cc21 (centres unmarked) [Compound 4] | – | 28.0 | 9.7 ± 1.5 nM | 14.6 ± 2.4 nM | 19.4 ± 4.1 nM | 14.6 ± 1.5 nM | 272 ± 104 nM | – | – | – | – | – | – | – | – | –
CNc1ccc2c(cc1=O)[C@@H](NS(=O)(=O)c1ccc(C(F)(F)F)cc1)CCc1cc(OC)c(OC)c(OC)c1-2 [Compound 21] | – | 83.3 | 73.5 ± 15.7 nM | 85.5 ± 5.4 nM | 87.6 ± 13.5 nM | 134 ± 41.5 nM | 6120 ± 825 nM | – | – | – | – | – | – | – | – | –
CNc1ccc2c(cc1=O)[C@@H](N)CCc1cc(OC)c(OC)c(OC)c1-2 [Compound 3, N-deacetyl-10-methylamino-10-demethoxycolchicine] | – | 9.2 | < 20 nM | < 20 nM | 19.7 ± 7 nM | < 20 nM | 129 ± 11.8 nM | 14 ± 1.7 nM | 16.9 ± 2.8 nM | 19.7 ± 1.7 nM | – | – | – | – | – | –
CNc1ccc2c(cc1=O)[C@@H](NC(C)=O)CCc1cc(OC)c(OC)c(OC)c1-2 [Compound 2, 10-methylamino-10-demethoxycolchicine] | – | 63.0 | 4.3 ± 1.3 nM | 10.8 ± 1.3 nM | 10.8 ± 1.3 nM | 8.6 ± 1.3 nM | 271 ± 99.9 nM | – | – | – | – | – | – | – | – | –
CNc1ccc2c(cc1=O)[C@@H](NC(=O)c1ccncc1)CCc1cc(OC)c(OC)c(OC)c1-2 [Compound 16] | – | 87.4 | 10.8 ± 1.3 nM | 17.3 ± 3.7 nM | 52 ± 29.3 nM | 12.8 ± 0.9 nM | 947 ± 260 nM | – | – | – | – | – | – | – | – | –
CCCCC(=O)NC1CCc2cc(OC)c(OC)c(OC)c2-c2ccc(NC)c(=O)cc21 (centres unmarked) [Compound 6] | – | 15.0 | 6.8 ± 3.9 nM | 13.6 ± 1.4 nM | 13.6 ± 2.3 nM | 15.9 ± 6.6 nM | 102 ± 20.7 nM | – | – | – | – | – | – | – | – | –
CNc1ccc2c(cc1=O)[C@@H](NC(=O)C(Cl)Cl)CCc1cc(OC)c(OC)c(OC)c1-2 [Compound 10] | – | 25.8 | 1.5 ± 0.5 nM | 8.6 ± 1.3 nM | 10.7 ± 1.3 nM | 8.6 ± 1.2 nM | 38.5 ± 21.6 nM | – | – | – | over 6 | – | – | – | – | –
CNc1ccc2c(cc1=O)C(NS(=O)(=O)CCN1CCOCC1)CCc1cc(OC)c(OC)c(OC)c1-2 (centres unmarked) [Compound 20] | – | 165.4 | 268 ± 94 nM | 800 ± 130 nM | 991 ± 280 nM | 150 ± 25.3 nM | 44400 ± 23900 nM | – | – | – | – | – | 6.6 | – | – | –
CCCC(=O)N[C@H]1CCc2cc(OC)c(OC)c(OC)c2-c2ccc(NC)c(=O)cc21 [Compound 5] | – | 20.2 | 9.6 ± 0.5 nM | 14.1 ± 2.4 nM | 16.4 ± 3.5 nM | 14.1 ± 1.4 nM | 195 ± 51.9 nM | – | – | – | – | – | – | – | – | –
CNc1ccc2c(cc1=O)[C@@H](NC(=O)c1ccccc1Cl)CCc1cc(OC)c(OC)c(OC)c1-2 [Compound 13] | – | 14.0 | 0.7 ± 0.1 nM | 6.3 ± 3.2 nM | 6.2 ± 1.6 nM | 9.2 ± 0.8 nM | 9.6 ± 3.3 nM | – | – | – | over 6 | – | – | – | – | approx. 170 times
CNc1ccc2c(cc1=O)[C@@H](NC(=O)c1ccccc1)CCc1cc(OC)c(OC)c(OC)c1-2 [Compound 12] | – | 11.8 | 8.5 ± 0.4 nM | 13 ± 1.3 nM | 13 ± 3.3 nM | 13 ± 1.3 nM | 99.9 ± 10 nM | – | – | – | – | – | – | – | – | –
C=CS(=O)(=O)NC1CCc2cc(OC)c(OC)c(OC)c2-c2ccc(NC)c(=O)cc21 (centres unmarked) [Compound 19] | – | 36.7 | 8.4 ± 0.7 nM | 11.4 ± 1.7 nM | 8.3 ± 3.8 nM | 13 ± 4.3 nM | 307 ± 145 nM | – | – | – | – | – | – | – | – | –
